The molecules below were run on INS-1E rat beta cells, no cytokines, CellTiter-Glo ATP, 48 h (assay: cytokine-free beta-cell viability effect – INS-1E rat cells, ATP luminescence, cherry pick, counter-screen for beta-cell apoptosis protection project, dose response (AID 463229)).
For COc1ccc(C(=O)N2CCN(c3ccc([N+](=O)[O-])c(NCCc4ccc(OC)c(OC)c4)c3)CC2)cc1, the AC50 was 3.46 µM.
With CCCCCc1cc(=O)oc2c(C(CCN3CCCC(C)C3)c3ccc(OC)cc3)c(OC)cc(OC)c12 (stereo unspecified) the AC50 was 14.2 µM.
O=C(Nc1cccc(Cl)c1)Nc1nnc(CSCCOc2ccc(Cl)cc2)s1 was tested, and the AC50 was 5.39 µM.
Molecule CC[C@]1(c2ccccc2OC)ON(c2ccccc2C(F)(F)F)C1=O has an AC50 of 4.55 µM.
CCN(CC)S(=O)(=O)c1ccc(Cl)c(C(=O)Nc2ccc(Cl)cc2[N+](=O)[O-])c1 showed an AC50 of 7.97 µM.
O=[N+]([O-])c1ccc(/C=N/n2cnc3ccccc32)s1 gave an AC50 of 4.04 µM.
Molecule CSc1nc(N)nc2c1ncn2CC(=O)N1CCN(Cc2c(C)cc(C)cc2C)CC1 has an AC50 of 2.65 µM.
For Cc1cc(C(=O)N/N=C/c2cc(Br)cc(Br)c2OC(=O)c2cccc(F)c2)n[nH]1, the AC50 was 4.79 µM.
O=C(/C=C/c1ccc(F)cc1)NC(=S)NNC(=O)c1cnccn1 showed an AC50 of 5.29 µM.
With O=C(Nc1ccccc1Cl)/C(Cl)=C(\Cl)S(=O)c1ccccc1 (stereo unspecified) the AC50 was 2.9 µM.
Work on CCSCCc1nnc(NC(=O)Nc2cccc(C(F)(F)F)c2)s1 yielded an AC50 of 4.25 µM.
CCCCCCCCCCOC(=O)Cn1c(COc2ccccc2)[n+](C)c2ccccc21 was tested, and the AC50 was 4.25 µM.
With CCOc1cc(-c2sc(Nc3cc(C)ccc3OC)n[n+]2-c2ccccc2)ccc1OC the AC50 was 15 µM.
CN(C)C1CCN(Cc2cc(COCc3ccccc3)c3cccnc3c2O)C1 (stereo unspecified) was tested, and the AC50 was 10.9 µM.
In the case of CCN(CC)CCCNC1=C(Cl)C(=O)c2ccccc2C1=O, the AC50 is reported as 13.1 µM.
Cc1sc2ncnc(NCC(O)c3ccccc3)c2c1C (stereo unspecified) gave an AC50 of 10.5 µM.
For O=C(CCl)N(c1ccccc1)C1CCCCC1, the AC50 was 5.56 µM.
With CCN(CC)C(=O)c1ccc(S(=O)(=O)N2CCC(c3nc4ccccc4s3)CC2)cc1 the AC50 was 7.7 µM.
For Cc1ccc(-n2cccc2C(=S)N=P(N(C)C)(N(C)C)N(C)C)cc1, the AC50 was 7.11 µM.
COc1ccc(NC(=O)/C(Cl)=C(/Cl)S(=O)Cc2ccc(C)cc2)cn1 (stereo unspecified) showed an AC50 of 1.3 µM.
Work on COc1ccccc1NC(=O)c1nc(S(=O)(=O)Cc2ccccc2)ncc1Cl yielded an AC50 of 8.64 µM.
With CC[C@H](C)[C@@H](C(=O)NCCCCCCCCCCC(=O)N1CCN(C(=O)OC(C)(C)C)CC1)n1cc(CCCCCNC(=O)OC(C)(C)C)nn1 the AC50 was 5.92 µM.
Work on O=C(NCCc1ccccc1)[C@@H]1CC=C[C@@H]2CCN(Cc3ccc(Cl)c(Cl)c3)C(=O)[C@@H]21 yielded an AC50 of 13.2 µM.
Cc1ccc2c(c1)c(/C=C/c1cc[n+](C)cc1)c(C)n2C was tested, and the AC50 was 3.97 µM.
Work on CCCCCCCCCCCCn1ccc(=N)cc1 yielded an AC50 of 0.515 µM.
With Cc1ccc(Nc2cc(C)nn2-c2nc(C)cc(=O)[nH]2)cc1 the AC50 was 1.57 µM.
Molecule CC(C)(C)OC(=O)NCc1ccc(NC(=O)c2nc[nH]c2C(=O)NCCCCNC(=O)c2[nH]cnc2C(=O)Nc2ccc(CNC(=O)OC(C)(C)C)cc2)cc1 has an AC50 of 5.34 µM.
In the case of CCN1CCN(CCCNC(=O)c2ccc3c(c2)NC(=O)/C(=C\c2cccc(C)c2)S3)CC1, the AC50 is reported as 12.3 µM.
Molecule O=C(N/N=C/c1cc(Br)c(O)c(Br)c1O)c1ccc2c(c1)OCCO2 has an AC50 of 8.27 µM.
In the case of Cc1ccc(S(=O)(=O)Nc2ccccc2N(C)S(=O)(=O)c2ccc(C)cc2)cc1, the AC50 is reported as 15.6 µM.
With O=c1nccc(N/N=C/c2ccccc2O)[nH]1 the AC50 was 23.3 µM.
O=C(CNc1cccc2ccccc12)N/N=C/c1ccc([N+](=O)[O-])o1 was tested, and the AC50 was 11.5 µM.
In the case of Cc1ccc(-c2cc(-c3ccc(C)cc3)[n+](-c3ccc(C(=O)[O-])cc3)c(-c3ccc(C)cc3)c2)cc1, the AC50 is reported as 7.24 µM.
Nc1nc(N)c2cc(Sc3ccc4ccccc4c3)ccc2n1 gave an AC50 of 2.09 µM.
Molecule CC1=[N+](C)c2ccc3ccccc3c2C1(C)C has an AC50 of 14.6 µM.
Work on CC(C)(C)c1ccc(OCc2ccc(C(=O)N/N=C/c3ccc(O)c(O)c3)cc2)cc1 yielded an AC50 of 8.35 µM.
CN(C)CCCNc1c2ccccc2nc2ccccc12 was tested, and the AC50 was 16.2 µM.
CC(C)C(=O)NC(c1ccccc1)c1cc([N+](=O)[O-])c2cccnc2c1O (stereo unspecified) gave an AC50 of 10.6 µM.
For O=C(Nc1ccc([N+](=O)[O-])cc1)Nc1ccc(Cl)cc1F, the AC50 was 6.71 µM.
Work on Cc1ccc(S(=O)(=O)NCc2ccncc2)c(C)c1C yielded an AC50 of 3.83 µM.
Molecule CN1/C(=C\C(=S)NC(=O)c2cccc(Br)c2)C(C)(C)c2ccccc21 has an AC50 of 3.93 µM.
Work on Cc1ccc(CSC(Nc2ccc(F)cc2)=C(C#N)C#N)cc1 yielded an AC50 of 4.11 µM.
Cc1ccc(S(=O)(=O)N2CCOCC2)cc1C(=O)Nc1nc(-c2ccccn2)cs1 was tested, and the AC50 was 7.77 µM.
In the case of CCOC(=O)c1c(C)oc2c1C(=O)c1ccccc1C2=O, the AC50 is reported as 12.3 µM.
O=C(Nc1ccc(OC(F)F)cc1)Nc1cccc(C(F)(F)F)c1 was tested, and the AC50 was 7.65 µM.
In the case of COc1ccc(C(CCN2CCCCC2)c2c(OC)cc(OC)c3c(-c4ccccc4)cc(=O)oc23)cc1 (stereo unspecified), the AC50 is reported as 14.1 µM.
CCCCC(CC)CN=C(N)NC(N)=NCCCCCCN=C(N)NC(N)=NCC(CC)CCCC (stereo unspecified) gave an AC50 of 2.35 µM.
CCc1ccc(C2CC(c3cccc(Cl)c3)n3nc(N)nc3N2)cc1 (stereo unspecified) was tested, and the AC50 was 14.7 µM.
Cc1ccc(-c2c(C#N)c(N)n3c(nc4ccccc43)c2C#N)cc1 gave an AC50 of 4.1 µM.
Work on COc1ccc(CCNc2c(C)c(C)nc3ncnn23)cc1 yielded an AC50 of 3.68 µM.
Work on Cc1ccc(C)c(NC(=O)/C(C#N)=C/c2cn(CC(=O)NCc3ccco3)c3ccccc23)c1 yielded an AC50 of 5.47 µM.
N#CC(C#N)=C(Nc1ccc(F)cc1)SCc1cccc(Br)c1 was tested, and the AC50 was 3.02 µM.
Molecule CCc1ccc(-c2cc(C(F)(F)F)n3nc(C(=O)Nc4cnn(Cc5ccc(C)cc5)c4)cc3n2)s1 has an AC50 of 7.83 µM.
With CCCCCn1c(=O)c(C(=O)Nc2ncccc2C)c(O)c2ccccc21 the AC50 was 6.75 µM.
CC(=O)NC(c1ccccc1)c1cc(Cl)c2cccnc2c1O (stereo unspecified) was tested, and the AC50 was 6.26 µM.
Work on COc1ccc(N/N=C/c2c(C(=O)O)ccc3ccccc23)cc1 yielded an AC50 of 4.35 µM.
Work on CC(=O)c1c(C)[nH]c(C(=O)OCC(=O)Nc2ccc(Cl)cc2[N+](=O)[O-])c1C yielded an AC50 of 2.82 µM.
For CC1CC(C)CN(S(=O)(=O)c2ccc(C(=O)NCCCn3ccnc3)cc2)C1 (stereo unspecified), the AC50 was 0.577 µM.
Molecule CC(=O)/C=C1\N(C)c2ccc(C)cc2C1(C)C has an AC50 of 7.3 µM.
CC(C)NC(=S)N/N=C/c1cc(Br)ccc1O gave an AC50 of 12.6 µM.
For CCCCOCCCNc1ncnc2c1[nH]c1ccccc12, the AC50 was 2.24 µM.
In the case of O=[N+]([O-])c1cccc(-c2cn3nc(-c4ccccc4)c(-c4ccccc4)nc3n2)c1, the AC50 is reported as 10 µM.
O=C(Nc1ccc(Cl)cc1)/C(=C/c1cccc(O)c1)c1nc2ccccc2s1 showed an AC50 of 4.46 µM.
For O=C(Nc1ccc(Cl)cc1)Nc1ccc(Cl)c(Cl)c1, the AC50 was 6.98 µM.
Cc1ccc2nc(N(CCCN(C)C)C(=O)c3ccc(S(=O)(=O)N4CCc5ccccc5C4)cc3)sc2c1 gave an AC50 of 6.99 µM.
Cc1ccc(-c2nn(-c3ccccc3)cc2/C=N/NC(=O)c2ccc3c(c2)OCO3)cc1 was tested, and the AC50 was 5.63 µM.
O=C(COc1ccc(Br)cc1)N1CCN(Cc2c[nH]c3ccccc23)CC1 gave an AC50 of 3 µM.
Work on CC(C)=CCc1cc2c(=O)c3c(O)c4c(cc3oc2c(O)c1O)OC(C)C4(C)C (stereo unspecified) yielded an AC50 of 7.43 µM.
Work on CC(C)(C)CN1CCC(Oc2cccc(C(=O)NCCCOc3cccnc3)c2)CC1 yielded an AC50 of 2.13 µM.
c1ccc(-c2nc3nonc3nc2-c2ccccc2)cc1 was tested, and the AC50 was 11.1 µM.
COc1ccc(CNCCC(c2ccc(OC(C)C)cc2)C(C)C)cc1OC (stereo unspecified) was tested, and the AC50 was 15 µM.
Work on CCS(=O)(=O)c1ncc(Cl)c(C(=O)Nc2ccc(S(=O)(=O)N3CCC(C)CC3)cc2)n1 yielded an AC50 of 7.4 µM.
Cc1ccc(N(CC(=O)Nc2cc(C)cc(C)c2)S(=O)(=O)c2c(C)noc2C)cc1 was tested, and the AC50 was 14.5 µM.
With Cc1nnsc1-c1onc(C)c1C(=O)Nc1cc(Cl)cc(Cl)c1 the AC50 was 16.5 µM.
With C(#Cc1ccccc1)C[N+]1(CC#Cc2cccc3ccccc23)CCCC1 the AC50 was 8.17 µM.
In the case of O=C(O)c1ccc(S(=O)(=O)/N=C2\C=C(Nc3ccccc3F)C(=O)c3ccccc32)cc1, the AC50 is reported as 7.91 µM.
For Cc1cccc2nc(CSc3nc4[nH]ncc4c(=O)n3-c3cccc(Cl)c3)cc(=O)n12, the AC50 was 7.35 µM.
For CCCCC(=O)NC(c1ccc(Cl)cc1Cl)c1ccc2cccnc2c1O (stereo unspecified), the AC50 was 2.22 µM.
For COC(=O)c1c(C)oc2ccc(N(C(=O)c3ccncc3)S(=O)(=O)c3ccc4ccccc4c3)cc12, the AC50 was 17.9 µM.
COc1ccccc1N1C(C)=CC(=C(C#N)c2nc3ccccc3s2)C=C1C was tested, and the AC50 was 8.66 µM.
Cc1nnc(N/N=C/c2ccccn2)[nH]c1=O gave an AC50 of 5.46 µM.
Work on COc1ccc(/C=C/C(=O)c2ccc([N+](=O)[O-])o2)cc1OC yielded an AC50 of 4.93 µM.
COc1ccc(NCc2nnc(SCC(=O)Nc3nc(-c4ccccc4)cs3)n2-c2ccccc2)cc1 gave an AC50 of 7 µM.
Oc1[nH]c(N=C2N=c3ccccc3=N2)c2ccccc12 was tested, and the AC50 was 3.44 µM.
COc1ccc(CCNc2ncnc3c2oc2ccccc23)cc1OC was tested, and the AC50 was 3.41 µM.
Work on Cc1ccc2nc(-c3ccccn3)c(Nc3ccccc3C)n2c1 yielded an AC50 of 9.99 µM.
In the case of S=C(NCCCN1CCOCC1)N1CCN(c2nc(-c3ccc(Cl)cc3)cs2)CC1, the AC50 is reported as 12.9 µM.
Work on CCCCn1c(/C=N/Nc2nc3ccccc3[nH]2)nc2ccccc21 yielded an AC50 of 14.1 µM.
CCC(=O)N1c2ccc(S(=O)(=O)N3CCN(c4ccc([N+](=O)[O-])cc4)CC3)cc2CC1C (stereo unspecified) was tested, and the AC50 was 6.37 µM.
CN1/C(=C\C(=O)C[n+]2ccc(C(=O)c3ccccc3)cc2)C(C)(C)c2ccccc21 showed an AC50 of 1.26 µM.
Molecule CC(Oc1cccc(Cl)c1)C(=O)Nc1cc(S(=O)(=O)N2CCOCC2)ccc1N1CCCCC1 (stereo unspecified) has an AC50 of 5.68 µM.
Molecule Cc1ccc(-c2sc(-c3ccccc3)nc2CC(=O)Nc2ccccc2F)cc1 has an AC50 of 2.06 µM.
In the case of Cc1cc(C(=O)NC2CCCc3c2cnn3-c2ccc(C)c(C)c2)n(C)n1 (stereo unspecified), the AC50 is reported as 0.378 µM.
COc1ccc(O)c(/C=N/NC(=O)c2cccc(N3CCCC3=O)c2)c1 was tested, and the AC50 was 14.8 µM.
CCCCCCC[n+]1ccc(-c2cc[n+](CCCCCCC)cc2)cc1 showed an AC50 of 3 µM.
N=c1c2ccccc2nc2n1CCCCCCCCCCC2 showed an AC50 of 13.9 µM.
COc1ccccc1NC(=O)CN(c1ccc(C23CC4CC(CC(C4)C2)C3)cc1)S(C)(=O)=O was tested, and the AC50 was 5.11 µM.
Work on CCN(CC)c1ccc(/C=N/NC(=O)c2ccc3nc[nH]c3c2)c(O)c1 yielded an AC50 of 2.7 µM.
In the case of Cc1cc(C2CCCCC2)n(O)c(=O)c1, the AC50 is reported as 2.69 µM.
CC(C)(C)c1cc(NCCCn2ccnc2)n2ncc(-c3ccccc3)c2n1 showed an AC50 of 15 µM.
Molecule Cc1nc(C)c(C(=O)N/N=C/c2cc(Br)ccc2O)s1 has an AC50 of 7.57 µM.
CCS(=O)(=O)c1ncc(Cl)c(C(=O)Nc2ccc(S(=O)(=O)N(C)c3ccccc3)cc2)n1 showed an AC50 of 6.63 µM.
COc1ccc(NC(=O)/C(Cl)=C(/Cl)S(=O)Cc2ccccc2)cn1 (stereo unspecified) showed an AC50 of 2.05 µM.
C#CCOCCOCCOCCNc1nc(N2CCN(C(=O)CCCCCCCCCCNC(=O)[C@H]([C@@H](C)CC)n3cc(CCCCN=C(N)N)nn3)CC2)nc(N2CCN(C(=O)CCCCCCCCCCNC(=O)[C@H](CO)n3cc(CCCCCN)nn3)CC2)n1 gave an AC50 of 7.67 µM.
Molecule CCOC(=O)/C(=C\c1ccc(OC(F)F)cc1)C1=Nn2c(nnc2-c2ccc(Cl)cc2)SC1 has an AC50 of 5.5 µM.
Cc1ccc(C(=O)N2N=C(c3ccc(Br)cc3)CC2c2ccccc2O)cc1 (stereo unspecified) was tested, and the AC50 was 7.3 µM.

Source: PubChem BioAssay AID463229 (Broad Institute, 2010)
